Measured values from EP0937711A1, “Thiobenzamides, process for their preparation and medicaments containing them” (Roche Diagnostics GmbH, priority 1998, dated 1999).

Experiments:
[1] = tested on: Citratplasma; assay: Activated partial thromboplastin time (APTT) in citrate plasma; assay type: biochemical; settings: time as difference to control (control ca. 28-35 s); for APTT 1000: 1000 µM in final volume, stopped after 5 min (>300)
Method: (§1) Neun Teile frisches Blut gesunder Spender werden mit einem Teil Natriumcitratlösung (0.11 Mol/l) gemischt und bei ca. 3000 U/min 10 Minuten bei Raumtemperatur zentrifugiert. Das Plasma wird abpipettiert und kann bei Raumtemperatur ca. 8 h aufbewahrt werden.
100 µl Citratplasma und 100 µl APTT-Reagenz (Diagnostica Stago / Boehringer Mannheim GmbH; enthält Lyophilisat Cephalin mit mikrokristallinem Kieselguraktivator) werden zusammen mit 10 µl Dimethylsulfoxid (DMSO) oder 10 µl einer Lösung der Wirksubstanz in DMSO in einem Kugelkoagulometer (KC10 der Fa. Amelung) 3 Minuten bei 37°C inkubiert. Mit Zugabe von 100 µl 0.025 M Calciumchlorid-Lösung wird eine Stoppuhr gestartet und der Zeitpunkt bis zum Eintritt der Gerinnung bestimmt. Die APTT beträgt bei den Kontrollmessungen ca. 28 -35 Sekunden und wird durch Wirksubstanzen verlängert. Sofern bei den Messungen nach 5 Minuten keine Gerinnung eintrat, wurde der Versuch gestoppt (>300).
In Tabelle 1 sind die gemessenen APTT-Zeiten in Sekunden als Differenz zur Kontrolle angegeben. Die Konzentrationen der Wirksubstanzen betrugen im Endvolumen 1000 µM (APTT 1000), 100 µM (APTT 100), 10 µM (APTT 10), 1 µM (APTT 1).

[2] = target: T1, humanem Faktor Xa (Homo sapiens, UniProt P00742); assay: Inhibition constants (Ki), chromogenic substrate Chromozym X, FXa; assay type: biochemical; settings: pH 7.5, 25°C, 0.1 M phosphate buffer
T1 construct: humanem Faktor Xa; purchased Boehringer Mannheim GmbH
Method: (§2) Die kinetischen Messungen wurden in 0.2 M Kochsalz und 0.5 % Polyethylenglycol 6000 enthaltendem 0.1 M Phosphatpuffer (Herstellung siehe unten) bei pH 7.5 und 25°C in Polystyrol-Halbmikroküvetten in einem Gesamtvolumen von 1 mi durchgeführt. Die Reaktionen wurden durch Zugabe von Enzym zu vorinkubierten Lösungen, die entweder Dimethylsulfoxid (Kontrolle) oder Lösungen der Testsubstanz in DMSO (Inhibitor-Stocklösungen: 10 mM in DMSO) enthielten, gestartet. Die Zunahme der Extinktion bei 405 nm als Folge der Freisetzung von 4-Nitroanilin aus dem Substrat wurde photometrisch über einen Zeitraum von 12 Minuten verfolgt. Im Abstand von 20 Sekunden wurden Meßwerte (Extinktion vs. Zeit) ermittelt und diese Daten per Computer gespeichert.
(§3) Zur Bestimmung der Inhibitionskonstanten Ki wurde wie folgt vorgegangen: Die Geschwindigkeiten V0 (Extinktionsänderung pro Sekunde; Messungen ohne Inhibitor) und Vi (Extinktionsänderung pro Sekunde; Messungen mit Inhibitor) wurden durch lineare Regression bestimmt, wobei nur die Meßpunkte berücksichtigt wurden, bei der sich die Substratkonzentration um weniger als 15% verringerte. Aus einer Meßreihe (konstante Inhibitorkonzentration, variable Substratkonzentrationen) bestimmte man KM und VMAX durch nichtlinearen Fit auf die Gleichung V =(Vmax * [S])/([S] + KM) [formula] […]

[3] = target: T2, Humanes α-Thrombin (Homo sapiens, UniProt P00734); assay: Inhibition constants (Ki), chromogenic substrate S-2238, thrombin; assay type: biochemical; settings: pH 7.5, 25°C, 0.1 M phosphate buffer
T2 construct: Humanes α-Thrombin; purchased Sigma
Method: as §2, §3

[4] = target: T3, bovines pankreatisches Trypsin (Bos taurus, UniProt P00760); assay: Inhibition constants (Ki), chromogenic substrate S-2238, trypsin; assay type: biochemical, bovin; settings: pH 7.5, 25°C, 0.1 M phosphate buffer
T3 construct: purchased Sigma; host or cells: bovine pancreas
T3 sequence (P00760 24-246): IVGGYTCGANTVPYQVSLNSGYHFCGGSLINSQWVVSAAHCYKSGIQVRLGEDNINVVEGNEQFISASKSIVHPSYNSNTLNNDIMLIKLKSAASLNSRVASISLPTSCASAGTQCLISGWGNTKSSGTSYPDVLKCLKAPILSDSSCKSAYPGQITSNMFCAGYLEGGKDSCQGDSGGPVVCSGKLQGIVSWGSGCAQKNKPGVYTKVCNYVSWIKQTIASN
Method: as §2, §3

[5] = tested on: Pferdethrombin; assay: Thrombin time in citrate plasma; assay type: biochemical, Pferd; settings: 500 µM in final volume; time as difference to control (control ca. 24 s)
Method: as §1
200 µl Citratplasma werden in einem Kugelkoagulometer (KC10 der Fa. Amelung) 2 Minuten bei 37°C inkubiert. Zu 190 µl vortemperiertem Thrombin-Reagenz (Boehringer Mannheim GmbH; enthält ca. 3 U/ml Pferdethrombin und 0.0125 M Ca^++ gibt man 10 µl Dimethylsulfoxid (DMSO) oder eine Lösung der Wirksubstanz in DMSO. Mit Zugabe dieser 200 µl Lösung zum Plasma wird eine Stoppuhr gestartet und der Zeitpunkt bis zum Eintritt der Gerinnung bestimmt. Die Thrombinzeit beträgt bei den Kontrollmessungen ca. 24 Sekunden und wird durch Wirksubstanzen verlängert. Sofern bei den Messungen nach 5 Minuten keine Gerinnung eintrat, wurde der Versuch gestoppt (>300).
In Tabelle 1 sind die gemessenen Thrombinzeiten in Sekunden als Differenz zur Kontrolle angegeben. Die Konzentrationen der Wirksubstanzen betrugen im Endvolumen 500 µM (TT 500).

T1 sequence (P00742 235-488 limits assumed): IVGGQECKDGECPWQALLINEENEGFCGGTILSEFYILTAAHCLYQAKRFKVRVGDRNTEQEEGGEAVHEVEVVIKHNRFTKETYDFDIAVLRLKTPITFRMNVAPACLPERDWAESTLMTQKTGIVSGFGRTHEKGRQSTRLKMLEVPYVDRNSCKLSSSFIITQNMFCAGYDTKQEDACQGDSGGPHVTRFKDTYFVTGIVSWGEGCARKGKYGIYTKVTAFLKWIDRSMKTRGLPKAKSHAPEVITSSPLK
T1 sequence (P00742 41-179 partner limits assumed): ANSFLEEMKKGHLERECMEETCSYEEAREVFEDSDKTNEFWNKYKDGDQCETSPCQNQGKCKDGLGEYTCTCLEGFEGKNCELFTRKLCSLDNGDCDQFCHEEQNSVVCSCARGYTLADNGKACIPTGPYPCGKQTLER

Structure (SMILES) | APTT 1000 [1] | other results
COC(=O)c1ccc(NC(=O)c2ccc3ccccc3c2)c(NC(=O)c2ccc(C(N)=S)cc2)c1 [Beispiel 1, 4-[(Naphthalin-2-carbonyl)-amino]-3-(4-thiocarbamoyl-benzoylamino)-benzoesäuremethylester] | 1 s | –
NC(=S)c1ccc(C(=O)Nc2cc(C(=O)O)ccc2NC(=O)c2ccc3ccccc3c2)cc1 [Beispiel 2, 4-[(Naphthalin-2-carbonyl)-amino]-3-(4-thiocarbamoyl-benzoylamino)-benzoesäure] | 9.4 s | –
COc1ccc(C(=O)Nc2ccccc2NC(=O)c2ccc(C(N)=S)cc2)cc1 [Beispiel 3, 2-(4-Methoxy-benzoylamino)-1-(4-thiocarbamoyl-benzoylamino)-benzol] | 157.9 s | Ki [2]: 0.05 µM; Ki [3]: > 100 µM; Ki [4]: > 100 µM; APTT 1 ([1]; 1 µM in final volume): 2.6 s; APTT 10 ([1]; 10 µM in final volume): 8.4 s; APTT 100 ([1]; 100 µM in final volume): 32.4 s; TT 500 [5]: 2.4 s
COC(=O)c1ccc(NC(=O)c2ccc(OC)cc2)c(NC(=O)c2ccc(C(N)=S)cc2)c1 [Beispiel 4, 4-(4-Methoxy-benzoylamino)-3-(4-thiocarbamoyl-benzoylamino)-benzoesäuremethylester] | 65.3 s | –
COC(=O)c1ccc(NC(=O)c2ccc(OC)c(OC)c2)c(NC(=O)c2ccc(C(N)=S)cc2)c1 [Beispiel 5, 4-(3,4-Dimethoxy-benzoylamino)-3-(4-thiocarbamoyl-benzoylamino)-benzoesäuremethylester] | 3.5 s | –
COC(=O)c1ccc(NC(=O)c2ccccc2C(=O)O)c(NC(=O)c2ccc(C(N)=S)cc2)c1 [Beispiel 6, 4-(2-Carboxy-benzoylamino)-3-(4-thiocarbamoyl-benzoylamino)-benzoesäuremethylester] | 9.0 s | –
COC(=O)c1ccc(NS(=O)(=O)c2ccc(OC)cc2)c(NC(=O)c2ccc(C(N)=S)cc2)c1 [Beispiel 7, 4-(4-Methoxy-benzolsulfonylamino)-3-(4-thiocarbamoyl-benzoylamino)-benzoesäuremethylester] | 0.8 s | –
COC(=O)c1ccc(NS(=O)(=O)c2ccc3ccccc3c2)c(NC(=O)c2ccc(C(N)=S)cc2)c1 [Beispiel 8, 4-(Naphthalin-2-sulfonylamino)-3-(4-thiocarbamoyl-benzoylamino)-benzoesäuremethylester] | -0.4 s | –
NC(=S)c1ccc(C(=O)Nc2ccccc2NC(=O)c2ccc(C(N)=S)cc2)cc1 [Beispiel 9, 1,2-Bis-(4-thiocarbamoyl-benzoylamino)-benzol] | 6.7 s | –
NC(=S)c1ccc(C(=O)Nc2cc(C(=O)O)ccc2NS(=O)(=O)c2ccc3ccccc3c2)cc1 [Beispiel 10, 4-(Naphthalin-2-sulfonylamino)-3-(4-thiocarbamoyl-benzoylamino)-benzoesäure] | 0.7 s | –
